# Laboratory results published in the Kinase Knowledgebase extract (Sharma et al. 2016).
# Molecular target: EGFR (UniProt P00533)
# Sequence (P00533 whole entry, looked up): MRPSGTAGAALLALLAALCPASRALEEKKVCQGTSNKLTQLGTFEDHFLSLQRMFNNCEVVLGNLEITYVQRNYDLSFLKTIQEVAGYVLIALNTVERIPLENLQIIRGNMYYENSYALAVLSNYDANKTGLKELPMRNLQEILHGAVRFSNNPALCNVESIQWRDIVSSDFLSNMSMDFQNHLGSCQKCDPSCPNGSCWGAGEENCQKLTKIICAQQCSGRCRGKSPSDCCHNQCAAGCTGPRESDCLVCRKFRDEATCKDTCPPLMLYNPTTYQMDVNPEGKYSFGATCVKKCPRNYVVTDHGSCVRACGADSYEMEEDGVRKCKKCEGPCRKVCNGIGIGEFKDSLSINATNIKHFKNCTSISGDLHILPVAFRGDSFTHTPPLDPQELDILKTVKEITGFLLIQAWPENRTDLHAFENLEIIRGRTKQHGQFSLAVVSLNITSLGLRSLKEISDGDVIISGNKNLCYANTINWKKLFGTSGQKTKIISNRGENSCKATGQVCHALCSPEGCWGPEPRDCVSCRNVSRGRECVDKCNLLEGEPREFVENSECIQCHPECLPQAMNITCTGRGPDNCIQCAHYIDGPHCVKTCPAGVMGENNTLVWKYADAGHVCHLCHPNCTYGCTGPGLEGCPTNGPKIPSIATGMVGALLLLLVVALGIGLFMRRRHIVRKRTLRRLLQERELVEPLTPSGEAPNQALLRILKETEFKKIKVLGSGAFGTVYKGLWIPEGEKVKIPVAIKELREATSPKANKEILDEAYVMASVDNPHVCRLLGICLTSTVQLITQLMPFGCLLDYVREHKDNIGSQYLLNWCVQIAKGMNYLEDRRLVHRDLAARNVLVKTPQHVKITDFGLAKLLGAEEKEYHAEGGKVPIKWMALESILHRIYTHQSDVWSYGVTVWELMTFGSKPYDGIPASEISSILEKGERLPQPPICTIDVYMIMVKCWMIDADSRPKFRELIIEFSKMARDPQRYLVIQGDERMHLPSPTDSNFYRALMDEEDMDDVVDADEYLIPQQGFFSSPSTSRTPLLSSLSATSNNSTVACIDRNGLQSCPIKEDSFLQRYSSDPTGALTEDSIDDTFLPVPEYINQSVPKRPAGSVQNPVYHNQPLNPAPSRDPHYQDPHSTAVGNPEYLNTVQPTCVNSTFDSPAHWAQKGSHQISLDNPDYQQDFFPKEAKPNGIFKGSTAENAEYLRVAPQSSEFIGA
row,inhibition,Compound
1,11.7,N[C@@H](Cc1cc(O)c(O)c(Sc2nc3ccccc3[nH]2)c1)C(=O)O
2,2.5,N[C@@H](Cc1cc(O)c(O)c(SC[C@H](N)C(=O)NCC(=O)O)c1)C(=O)O
3,0,N[C@@H](Cc1cc(O)c(O)c(SC[C@H](N)C(=O)N[C@@H](CCC(=O)O)C(=O)O)c1)C(=O)O
4,2.2,NCCC(=O)N[C@@H](Cc1cc(O)c(O)c(SC[C@H](NC(=O)CC[C@H](N)C(=O)O)C(=O)NCC(=O)O)c1)C(=O)O
5,2.9,N[C@@H](CSc1cc(C[C@H](N)C(=O)O)cc(O)c1O)C(=O)O

# The remaining lines, values behind:
row,Compound,inhibition
1,NCCc1cc(O)c(O)c(SC[C@H](N)C(=O)N[C@@H](CCC(=O)O)C(=O)O)c1,9.3
2,N[C@@H](Cc1cc(O)c(O)c(Sc2nc[nH]n2)c1)C(=O)O,17
3,NCCC(=O)NCCc1cc(O)c(O)c(SC[C@H](N)C(=O)NCC(=O)O)c1,7.9
4,NCCC(=O)NCCc1cc(O)c(O)c(SC[C@H](NC(=O)CC[C@H](N)C(=O)O)C(=O)NCC(=O)O)c1,4.9
5,NCCC(=O)NCCc1cc(O)c(O)c(SC[C@H](N)C(=O)N[C@@H](CCC(=O)O)C(=O)O)c1,52.1
6,NCCC(=O)NCCc1cc(O)c(O)c(SC[C@H](N)C(=O)O)c1,12.1
7,NCCc1cc(O)c(O)c(SC[C@H](N)C(=O)NCC(=O)O)c1,19.6
8,NCCC(=O)N[C@@H](Cc1cc(O)c(O)c(SC[C@H](N)C(=O)NCC(=O)O)c1)C(=O)O,0
9,NCCC(=O)N[C@@H](Cc1cc(O)c(O)c(SC[C@H](N)C(=O)N[C@@H](CCC(=O)O)C(=O)O)c1)C(=O)O,0
10,NCCc1cc(O)c(O)c(Sc2nc[nH]n2)c1,15.9
11,NCCc1cc(O)c(O)c(SC[C@H](N)C(=O)O)c1,16.3
12,NCCc1cc(O)c(O)c(Sc2nc3ccccc3[nH]2)c1,15.1
